The record followed here is the NIST ThermoML archive (doi:10.1021/je050386z).

The conditions of the series: 101.33 kPa, Liquid.
[1] abbreviates: 283.15 K, Vibrating tube method.
The mark [2] stands for this setting: 298.15 K, Vibrating tube method.
[3] abbreviates: 323.15 K, Vibrating tube method.
The mark [4] stands for this setting: 348.15 K, Vibrating tube method.

± gives the expanded uncertainty stated by the source.

As for `CCC[n+]1cccc(C)c1.O=S(=O)([N-]S(=O)(=O)C(F)(F)F)C(F)(F)F`, the mass density – broadly, mass per unit of volume – by setting is: under setting [1], 1460 ± 3 kg/m3; under setting [2], 1444 ± 3 kg/m3; under setting [3], 1420 ± 3 kg/m3; under setting [4], 1397 ± 3 kg/m3.

Turning to `CCn1cc[n+](C)c1.O=S(=O)([N-]S(=O)(=O)C(F)(F)F)C(F)(F)F`, the mass density under setting [1] is listed as 1534 ± 5 kg/m3, the mass density under setting [2] came out at 1517 ± 5 kg/m3, the mass density under setting [3] stood at 1492 ± 4 kg/m3 and the mass density under setting [4] came out at 1467 ± 4 kg/m3.

Turning to `CCn1cc[n+](C)c1.O=S(=O)([N-]S(=O)(=O)C(F)(F)C(F)(F)F)C(F)(F)C(F)(F)F`, the mass density came out at 1608 ± 3 kg/m3 under setting [1], 1590 ± 3 kg/m3 under setting [2], 1562 ± 3 kg/m3 under setting [3] and 1534 ± 3 kg/m3 under setting [4].

On to `CCCC[n+]1cccc(C)c1.O=S(=O)([N-]S(=O)(=O)C(F)(F)F)C(F)(F)F`, for which the mass density by setting is: under setting [1], 1428 ± 3 kg/m3; under setting [2], 1412 ± 3 kg/m3; under setting [3], 1389 ± 3 kg/m3; under setting [4], 1367 ± 3 kg/m3.

On to `CCCCn1cc[n+](C)c1.COS(=O)(=O)[O-]` [1-butyl-3-methylimidazolium methyl sulfate], for which, for the setting “298.15 K, Pycnometric method”, the mass density was 1214 ± 3 kg/m3.

`CC(=O)[O-].CCCCn1cc[n+](C)c1` [1-butyl-3-methylimidazolium acetate]: the mass density (298.15 K, Pycnometric method) was determined as 1053 ± 3 kg/m3.

Consider `CCC[n+]1ccn(C)c1C.O=S(=O)([N-]S(=O)(=O)C(F)(F)F)C(F)(F)F`, for which the mass density (299.15 K, Pycnometric method) turned out to be 1481 ± 3 kg/m3.

Take `CCCn1cc[n+](C)c1C.O=S(=O)([C-](S(=O)(=O)C(F)(F)F)S(=O)(=O)C(F)(F)F)C(F)(F)F`: the mass density turned out to be 1612 ± 3 kg/m3 under setting [1], 1597 ± 3 kg/m3 under setting [2], 1582 ± 3 kg/m3 under setting [3] and 1567 ± 3 kg/m3 under setting [4].

Take `CCCCn1cc[n+](C)c1.O=S(=O)([O-])C(F)(F)C(F)OC(F)(F)C(F)(F)F` (centres undefined): the mass density by setting is: under setting [1], 1439 ± 4 kg/m3; under setting [2], 1423 ± 4 kg/m3; under setting [3], 1397 ± 4 kg/m3; under setting [4], 1372 ± 4 kg/m3.

Regarding `CCCCn1cc[n+](C)c1.N#C[S-]` [1-butyl-3-methylimidazolium thiocyanate], the mass density (298.65 K, Pycnometric method) amounted to 1067 ± 3 kg/m3.

As to `CCCC[n+]1ccn(C)c1.O=S(=O)([O-])C(F)(F)C(F)C(F)(F)F` (centres undefined), the mass density under setting [1] stood at 1422 ± 4 kg/m3, the mass density under setting [2] came out at 1409 ± 4 kg/m3, the mass density under setting [3] was 1385 ± 4 kg/m3 and the mass density under setting [4] is recorded as 1364 ± 4 kg/m3.

For the molecule `CCCCn1cc[n+](C)c1.O=S(=O)([O-])C(F)(F)C(F)OC(F)(F)F` (centres undefined), the mass density under setting [1] is 1409 ± 4 kg/m3, the mass density under setting [2] is given as 1393 ± 4 kg/m3, the mass density under setting [3] was 1369 ± 4 kg/m3 and the mass density under setting [4] stood at 1345 ± 4 kg/m3.

In the case of `CCCCn1cc[n+](C)c1.O=S(=O)([O-])C(F)(F)C(F)(F)OC(F)C(F)(F)F` (centres undefined), the mass density is recorded as 1464 ± 4 kg/m3 under setting [1], 1449 ± 4 kg/m3 under setting [2], 1425 ± 4 kg/m3 under setting [3] and 1401 ± 4 kg/m3 under setting [4].

On to `CCCCn1cc[n+](C)c1.O=S(=O)([O-])C(F)(F)C(F)F`, for which, for the setting “301.45 K, Pycnometric method”, the mass density is on record as 1324 ± 4 kg/m3.

In the case of `CCCCCCCCCCCCn1cc[n+](C)c1.O=S(=O)([O-])C(F)(F)C(F)F`, the mass density (301.35 K, Pycnometric method) was found to be 1136 ± 4 kg/m3.

For `CCn1cc[n+](C)c1.O=S(=O)([O-])C(F)(F)C(F)F`, where the note is “301.45 K, Pycnometric method”, the mass density is 1502 ± 5 kg/m3.

On to `CCCCCCCn1cc[n+](C)c1.O=S(=O)([O-])C(F)(F)C(F)F`, for which the mass density (301.15 K, Pycnometric method) is listed as 1274 ± 4 kg/m3.
